The values below come from patent US10058534B2, “Benzothiophene derivatives and compositions thereof as selective estrogen receptor degraders” (NOVARTIS AG, priority 2013, dated 2018).

Structures can show the parent of a compound that is named as a salt. Where two headings read alike, the source gives them in different places.

What is called IC50 is the concentration at which inhibition is half-maximal.

In one assay the target is ERα (Homo sapiens (Human), UniProt P03372). Kind of assay: ERα degradation (MCF7 cells), in-cell Western. Type of assay: cell-based. Conditions: for IC50: inflection point of the degradation in response to ligand concentration. The method, then:
ERα Degradation (MCF7 Cells)
(§1) The column titled MCF7 IC50 reports the inflection point of the inhibition of transcription in MCF7 cells as described above. Percentage ERα remaining reports the remaining ERα protein measured at 10 μM concentration of the ligand as described above. The column ERα IC50 reports the inflection point of the degradation in response to the ligand concentration.

Assay [1] addresses ER (endogenous, MCF7 cells) (Homo sapiens (Human), UniProt P03372). Nature of the assay: ER transcription assay (MCF7 cells), ERE-luciferase reporter. Conditions: read-out: MCF7 IC50. The format is cell-based.
Excerpt: ER Transcription Assay (MCF7 Cells)
The ER transcription assay is a reporter assay that is based on the ability of ER to induce transcription from a luciferase reporter gene containing estrogen response elements (EREs) in the promoter/enhancer region. When the reporter gene is transfected in MCF7 cells (containing endogenous ER), transcription is reflected by the level of luciferase expression.
A day before transfection, cells are split into a T75 flask at a cell density of 300,000 cells/mL (10 mL total) and allowed to attach overnight in a humidified CO2 incubator at 37° C.
Approximately 20 ug DNA is mixed in OptiMEM (Invitrogen) to a total volume of 650 μL. Following incubation, the OptiMEM-DNA mixture is added to the OptiMEM-Lipofectin mix and incubated for 15 minutes at 37° C. The DNA-Lipofectin mixture is then added directly to the T75 flask and the flask is returned to the incubator.
Normally, DMSO (used as a vehicle) is included to achieve a final concentration of 0.1% when added to the cells. Transfected cells are trypsinized, resuspended in DMEM/F12/10% charcoal-stripped serum and added to the 96-well plate at 25,000 cells/well in 90 μL of media. The plate is then returned to the incubator for 24 hours.
After incubation with compounds for 24 hours, Firefly and Renilla luciferase activities are measured to determine ER transcriptional activity. Media is removed from 96-well plates by decanting and blotting on paper towels.
One second total read time after a one second delay.
One second total read time after one second delay. If Firefly luciferase signal is high, Renilla assay must be done an hour after the Firefly assay due to incomplete squelching of Firefly signal.
as §1
For orientation: In a reporter assay the amount or activity of a reporter protein is the signal.

Where [2] appears, read: remaining ERα protein at 10 μM ligand, MCF7 cells, relative to DMSO control.
Where [3] appears, read: inflection point of the inhibition of transcription in MCF7 cells, 0.1 nM estradiol, 24 hours.

Sequence of ERα (P03372 whole entry): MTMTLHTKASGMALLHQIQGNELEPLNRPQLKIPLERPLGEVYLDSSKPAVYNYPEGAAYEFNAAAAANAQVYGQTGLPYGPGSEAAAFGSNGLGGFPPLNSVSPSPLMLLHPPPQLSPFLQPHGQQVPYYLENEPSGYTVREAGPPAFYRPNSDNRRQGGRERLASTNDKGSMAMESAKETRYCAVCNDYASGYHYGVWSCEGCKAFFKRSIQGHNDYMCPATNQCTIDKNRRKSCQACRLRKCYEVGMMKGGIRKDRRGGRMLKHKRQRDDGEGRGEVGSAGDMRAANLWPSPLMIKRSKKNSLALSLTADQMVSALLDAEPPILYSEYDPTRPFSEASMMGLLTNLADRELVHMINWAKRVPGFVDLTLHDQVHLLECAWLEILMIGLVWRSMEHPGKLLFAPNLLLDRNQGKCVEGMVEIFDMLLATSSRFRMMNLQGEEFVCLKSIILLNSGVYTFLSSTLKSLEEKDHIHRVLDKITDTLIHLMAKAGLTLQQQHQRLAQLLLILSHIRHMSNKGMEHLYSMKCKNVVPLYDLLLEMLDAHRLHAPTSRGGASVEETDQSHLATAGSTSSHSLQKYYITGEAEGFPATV
Sequence of ER (endogenous, MCF7 cells) (P03372 whole entry): as above

For the molecule `CNC(=O)/C=C/c1ccc(Oc2c(-c3ccc(O)c(F)c3)sc3cc(O)ccc23)cc1` [Example 69, (E)-3-(4-((2-(3-fluoro-4-hydroxyphenyl)-6-hydroxybenzo[b]thiophen-3-yl)oxy)phenyl)-N-methylacrylamide], the figures for the IC50 (at ERα (MCF7 cells); in assay [1] (setting [3])) were 0.024 µM and 0.185 µM, respectively. Besides, on ERα (setting [2]), the “% ERα remaining” value is on record as 26%.

For the molecule `CNC(=O)/C=C/c1ccc(Oc2c(-c3ccc(C(F)(F)F)cc3)sc3cc(O)ccc23)cc1` [Example 70, (E)-3-(4-((6-hydroxy-2-(4-(trifluoromethyl)phenyl)benzo[b]thiophen-3-yl)oxy)phenyl)-N-methylacrylamide], the IC50 at ERα (MCF7 cells) worked out at 0.009 µM; in assay [1] (setting [3]) it was 0.041 µM. In addition, the “% ERα remaining” value on ERα (setting [2]) was 32%.

As for `CNC(=O)/C=C/c1ccc(Oc2c(-c3ccc(O)cc3)sc3cc(O)ccc23)cn1` [Example 71, (E)-3-(5-((6-hydroxy-2-(4-hydroxyphenyl)benzo[b]thiophen-3-yl)oxy)pyridin-2-yl)-N-methylacrylamide], the “% ERα remaining” value at ERα (setting [2]) came out at 41%. In assay [1] (setting [3]), the IC50 worked out at 0.269 µM.

Take `Oc1ccc(-c2sc3cc(O)ccc3c2Oc2ccc(/C=C/c3c[nH]cn3)cc2)cc1` [Example 72, (E)-3-(4-(2-(1H-imidazol-4-yl)vinyl)phenoxy)-2-(4-hydroxyphenyl)benzo[b]thiophen-6-ol]: the IC50 came out at 0.011 µM on ERα (MCF7 cells) and 0.053 µM in assay [1] (setting [3]). Also, the “% ERα remaining” value at ERα (setting [2]) is listed as 39%.

`Cn1cnc(/C=C/c2ccc(Oc3c(-c4ccc(O)cc4)sc4cc(O)ccc34)cc2)c1` [Example 73, (E)-2-(4-hydroxyphenyl)-3-(4-(2-(1-methyl-1H-imidazol-4-yl)vinyl)phenoxy)benzo[b]thiophen-6-ol]: the IC50 against ERα (MCF7 cells) was 0.017 µM; in assay [1] (setting [3]), 0.125 µM. For the same molecule, the “% ERα remaining” value at ERα (setting [2]) is on record as 47%.

`CCCn1cnc(/C=C/c2ccc(Oc3c(-c4ccc(O)cc4)sc4cc(O)ccc34)cc2)c1` [Example 74, (E)-2-(4-hydroxyphenyl)-3-(4-(2-(1-propyl-1H-imidazol-4-yl)vinyl)phenoxy)benzo [b]thiophen-6-ol]: the results for the IC50 (at ERα (MCF7 cells); in assay [1] (setting [3])) were 0.01 µM and 0.058 µM, respectively. The “% ERα remaining” value on ERα (setting [2]) worked out at 32%.

`CN(C)Cc1ccccc1-c1sc2cc(O)ccc2c1Oc1ccc(/C=C/C(=O)O)cc1` [Example 77, (E)-3-(4-((2-(2-((dimethylamino)methyl)phenyl)-6-hydroxybenzo[b]thiophen-3-yl)oxy)phenyl)acrylic acid]: the IC50 against ERα (MCF7 cells) amounted to 0.0014 µM; in assay [1] (setting [3]), 0.044 µM. Further, at ERα (setting [2]), the “% ERα remaining” value is reported as 15%.

For the molecule `CC(=O)/C=C/c1ccc(Oc2c(-c3ccccc3C(C)C)sc3cc(O)ccc23)cc1` [Example 78, (E)-4-(4-((6-hydroxy-2-(2-isopropylphenyl)benzo[b]thiophen-3-yl)oxy)phenyl)but-3-en-2-one], the “% ERα remaining” value on ERα (setting [2]) was found to be 72%. Besides, the IC50 in assay [1] (setting [3]) came to 0.006 µM.

For `O=C(O)/C=C/c1ccc(Oc2c(-c3ccccc3C(F)F)sc3cc(O)ccc23)cc1` [Example 79, (E)-3-(4-((2-(2-(difluoromethyl)phenyl)-6-hydroxybenzo [b]thiophen-3-yl)oxy)phenyl)acrylic acid], the IC50 against ERα (MCF7 cells) came to 0.0042 µM; in assay [1] (setting [3]), 0.052 µM. The “% ERα remaining” value on ERα (setting [2]) is 17%.

With `CC(C)OC(=O)/C=C/c1ccc(Oc2c(-c3ccccc3C(C)C)sc3cc(O)ccc23)cc1` [Example 81, (E)-isopropyl 3-(4-((6-hydroxy-2-(2-isopropylphenyl)benzo[b]thiophen-3-yl)oxy)phenyl)acrylate], the “% ERα remaining” value on ERα (setting [2]) came out at 29%. Moreover, in assay [1] (setting [3]), the IC50 turned out to be 0.32 µM.

Regarding `CC(=O)Oc1ccc2c(Oc3ccc(/C=C/C(=O)O)cc3)c(-c3ccccc3C(C)C)sc2c1` [Example 82, (E)-3-(4-((6-acetoxy-2-(2-isopropylphenyl)benzo[b]thiophen-3-yl)oxy)phenyl)acrylic acid], the “% ERα remaining” value on ERα (setting [2]) amounted to 21%. The IC50 in assay [1] (setting [3]) worked out at 0.011 µM.

On to `COCCC(=O)Oc1ccc2c(Oc3ccc(/C=C/C(=O)O)cc3)c(-c3ccccc3C(C)C)sc2c1` [Example 83, (E)-3-(4-((2-(2-isopropylphenyl)-6-((3-methoxypropanoyl)oxy)benzo[b]thiophen-3-yl)oxy)phenyl)acrylic acid], for which the “% ERα remaining” value at ERα (setting [2]) is recorded as 13%. The IC50 in assay [1] (setting [3]) stood at 0.015 µM.

As to `CC(C)c1ccccc1-c1sc2cc(OCN3C(=O)c4ccccc4S3(=O)=O)ccc2c1Oc1ccc(/C=C/C(=O)O)cc1` [Example 84, (E)-3-(4-((6-((1,1-dioxido-3-oxobenzo [d]isothiazol-2(3H)-yl)methoxy)-2-(2-isopropylphenyl)benzo[b]thiophen-3-yl)oxy)phenyl)acrylic acid], the “% ERα remaining” value at ERα (setting [2]) was 12%. The IC50 in assay [1] (setting [3]) turned out to be 0.044 µM.

Turning to `CC(C)c1ccccc1-c1sc2cc(OC(=O)[C@@H](N)C(C)C)ccc2c1Oc1ccc(/C=C/C(=O)O)cc1` [Example 85, (S,E)-3-(4-((6-((2-amino-3-methylbutanoyl)oxy)-2-(2-isopropylphenyl)benzo [b]thiophen-3-yl)oxy)phenyl)acrylic acid hydrochloride], the “% ERα remaining” value on ERα is listed as 12%. For the same molecule, the IC50 in assay [1] amounted to 0.007 µM.

On to `CCC(C)c1ccccc1-c1sc2cc(O)ccc2c1Oc1ccc(/C=C/C(=O)O)cc1` (centres unmarked) [Example 86, (E)-3-(4-((2-(2-(sec-butyl)phenyl)-6-hydroxybenzo[b]thiophen-3-yl)oxy)phenyl)acrylic acid], for which the IC50 against ERα (MCF7 cells) is 0.0002 µM; in assay [1] (setting [3]), 0.007 µM. On ERα (setting [2]), the “% ERα remaining” value came out at 12%.

`O=C(O)/C=C/c1ccc(Oc2c(-c3ccccc3C3CCCC3)sc3cc(O)ccc23)cc1` [Example 87, (E)-3-(4-((2-(2-cyclopentylphenyl)-6-hydroxybenzo[b]thiophen-3-yl)oxy)phenyl)acrylic acid]: the IC50 on ERα (MCF7 cells) came to 0.0004 µM; in assay [1] (setting [3]), 0.014 µM. In addition, on ERα (setting [2]), the “% ERα remaining” value worked out at 15%.

`O=C(O)/C=C/c1ccc(Oc2c(-c3ccccc3C3CCC3)sc3cc(O)ccc23)cc1` [Example 89, (E)-3-(4-((2-(2-cyclobutylphenyl)-6-hydroxybenzo[b]thiophen-3-yl)oxy)phenyl)acrylic acid]: the IC50 on ERα (MCF7 cells) came out at 0.0005 µM; in assay [1] (setting [3]), 0.019 µM. Moreover, the “% ERα remaining” value on ERα (setting [2]) is on record as 18%.

Regarding `O=C(O)/C=C/c1ccc(Oc2c(-c3cccc(F)c3C(F)(F)F)sc3cc(O)ccc23)cc1` [Example 90, (E)-3-(4-((2-(3-fluoro-2-(trifluoromethyl)phenyl)-6-hydroxybenzo[b]thiophen-3-yl)oxy)phenyl)acrylic acid], the IC50 on ERα (MCF7 cells) was determined as 0.0012 µM; in assay [1] (setting [3]) it was 0.026 µM. The “% ERα remaining” value at ERα (setting [2]) is listed as 15%.

Consider `COc1ccc(-c2sc3cc(O)ccc3c2Oc2ccc(/C=C/C(=O)O)cc2)c(C(F)(F)F)n1` [Example 91, (E)-3-(4-((6-hydroxy-2-(6-methoxy-2-(trifluoromethyl)pyridin-3-yl)benzo[b]thiophen-3-yl)oxy)phenyl)acrylic acid], for which the “% ERα remaining” value on ERα (setting [2]) was determined as 16%. Besides, the half-inhibitory concentration (IC50) in assay [1] (setting [3]) was 0.023 µM.

Take `O=C(O)/C=C/c1ccc(Oc2c(-c3ccccc3CN3CCCC3)sc3cc(O)ccc23)cc1` [Example 92, (E)-3-(4-((6-hydroxy-2-(2-(pyrrolidin-1-ylmethyl)phenyl)benzo [b]thiophen-3-yl)oxy)phenyl)acrylic acid]: the “% ERα remaining” value at ERα (setting [2]) was determined as 16%. For the same molecule, in assay [1] (setting [3]), the IC50 was 0.029 µM.

Regarding `CC(C)c1ccccc1-c1sc2cc(O)ccc2c1Oc1ccc(CCC(=O)O)cc1` [Example 93, 3-(4-((6-hydroxy-2-(2-isopropylphenyl)benzo [b]thiophen-3-yl)oxy)phenyl)propanoic acid], the IC50 against ERα (MCF7 cells) was found to be 0.0016 µM; in assay [1] (setting [3]) it was 0.072 µM. The “% ERα remaining” value on ERα (setting [2]) turned out to be 25%.

For `N#CCc1ccccc1-c1sc2cc(O)ccc2c1Oc1ccc(/C=C/C(=O)O)cc1` [Example 94, (E)-3-(4-((2-(2-(cyanomethyl)phenyl)-6-hydroxybenzo[b]thiophen-3-yl)oxy)phenyl)acrylic acid], the “% ERα remaining” value at ERα (setting [2]) is reported as 20%. Further, the IC50 in assay [1] (setting [3]) was found to be 0.086 µM.

As to `Cn1nnc(Cc2ccccc2-c2sc3cc(O)ccc3c2Oc2ccc(/C=C/C(=O)O)cc2)n1` [Example 96, (E)-3-(4-((6-hydroxy-2-(2-((2-methyl-2H-tetrazol-5-yl)methyl)phenyl)benzo [b]thiophen-3-yl)oxy)phenyl)acrylic acid], the IC50 is 0.0017 µM on ERα (MCF7 cells) and 0.212 µM in assay [1] (setting [3]). Moreover, the “% ERα remaining” value at ERα (setting [2]) is given as 14%.
